Laboratory results: US9579325B2, “Modulators of TNF-α signaling” (Genzyme Corporation, priority 2000, dated 2017)

What was measured:
[1] = test system: L929 cells; test: TNF High Throughput Screen (TNF-α driven apoptosis assay); type: cell-based, mouse; conditions: Mus musculus, human TNF-α + actinomycin D, read-out: TNFα IC50
In short: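 Mouse L929 cells were pretreated with compound for 2 hours, then given human TNF-α plus actinomycin D (40 μg/ml final) overnight. Surviving cells were stained with crystal violet, solubilised in methanol and read at 595 nm. Values are % inhibition at 1 μM (0 = TNF alone, 100 = no TNF) or IC50 from sigmoidal fits of dilution series.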

[2] = test system: C57/BL mouse; test: Sepsis model: murine LPS-d-galactosamine model; type: in vivo; conditions: prevention of mortality over three days
Protocol: Sepsis was induced in the C57/BL mouse by the intravenous injection of 20 ng of lipopolysaccharide/animal plus 20 mgs d-galactosamine/animal. Inhibition was measured as the prevention of mortality over a three day period. Compounds were administered intraperitoneally in 10% cremophore/10% ethanol/80% normal saline one hour before induction.

[3] = test system: male rats; test: Inflammatory Bowel Disease model: rat DNBS distal colitis; type: in vivo; conditions: 7 doses
Protocol: Groups of three male rats weighing 150+/−10 g and fasted for 24 hours were used. Distal colitis was induced by intracolonic instillation of 0.5 ml/rat DNBS (2,4-dinitrobenzene sulfonic acid, 60 mg/ml in ethanol 30%) after which air (2 ml) was gently injected through the cannula to ensure that the solution remains in the colon. A test compound was administered orally 24 and 2 hours before DNBS-instillation and then daily for 5 days in a total of 7 doses. The animals were sacrificed 24 hours after the final dose of test compound administration and each colon was removed and weighed.

[4] = Pharmacokinetic parameters; type: in vivo; conditions: for half-life: unit and species not given, read-out: Pharmacokinetic Parameters t1/2 (converted)
[5] = test system: Vascular Cell Adhesion Molecule (VCAM) expression in primary human umbilical vein endothelial cells; test: VCAM High Throughput Screen (TNF-α driven VCAM expression); type: cell-based; conditions: HUVEC, TNF 1.0 ng/ml
Excerpt: Description of Table V: The results shown in Table V were obtained using the TNF-α assays performed as described in the protocols entitled “Method for TNF High Throughput Screen” and “Method for VCAM High Throughput Screen”, which are detailed below. These assays measure a cellular response to TNF-α stimulation, and the data published in the table are expressed as percentage inhibitions. Percentage inhibition is computed on a scale of 0 to 100% where 0 percent inhibition means the compound has no effect in the assay (the response is indistinguishable from TNF-α treatment alone), and 100% inhibition means that when the compound is present at the stated concentration, the response in the assay is the same as if TNF-α were not added. These two assays measure two different outcomes of TNF-α treatment, cell death and Vascular Cell Adhesion Molecule (VCAM) expression, and capture two of TNF-α's many biological effects. TNF-α induced apoptosis is a mechanism by which TNF-α production during immune/inflammatory responses can lead to direct cellular and tissue damage. TNF-α VCAM expression in endothelial cells is a response that allows leukocytes to leave the blood and enter a site of immune/inflammatory response. Both of these activities could lead to pathology in immune/inflammatory diseases. In the first column of the table, the percentage inhibition of the TNF-α driven apoptosis assay when the compounds are tested at 1 μM concentration is presented. The second column in the table lists the IC50 for the compound, a standard measure using a dilution series in the assay, and fitting a sigmoidal curve to the resulting dose-response curve. The IC50 is the concentration (derived analytically from the sigmoidal function) at which the compound would inhibit 50% of the response in the assay. The third and fourth column list the corresponding analysis for the TNF-α driven VCAM assay. In Table VI, data corresponding to the data in column 1 of Table V is shown, with human cells replacing the mouse cells used in the high throughput screen. […] As a consequence, the compounds will have use in treating more than one TNF-α mediated condition, and may be selected according to the manner in which the condition manifests. This corresponds to the use of these compounds in the treatment of human disease.
• 1. Plate 4×10^4 L929 cells in 100 μl of complete EMEM in Costar 96 well plates in PM. • 2. The next day, pretreat with compound, inhibitor and control vehicle for 2 hours. • 3. After 2 hours pretreatment, add 10 μl 5 ng/ml human TNF-α and actinomycin D (40 μg/ml final concentration). • 4. Incubate overnight. • 5. In AM, remove supernatant. • 6. Wash on a plate washer (0.9% NaCl). • 7. […] Shake plates on orbital shaker and read at 595 nm on plate reader. […]

O=C(c1ccccc1)c1ccccc1C(=O)N(CCc1c[nH]cn1)C(Cc1ccccc1)C(=O)NCC(c1ccccc1)c1ccccc1 (racemic) [Compound 43]
IC50 [1]: 2.98 µM | Sepsis: Murine LPS-d-galactosamine model % inhibition ([2]; 10 mg/kg intraperitoneally one hour before induction): 33 @ 10 mg/kg % | Inflammatory Bowel Disease: Rat DNBS model % inhibition of colonic weight gain ([3]; 50 mg/kg orally): 31% @ 50 mg/kg | bioavailability ([4]; in vivo, po, species not given): < 1% | half-life ([4]; in vivo): 3.6 h

Cc1nn(-c2nccc(-c3ccccn3)n2)c(C)c1SCc1ccc(Cl)cc1 [Compound 119, 2-[4-(4-Chloro-benzylsulfanyl)-3,5-dimethyl-pyrazol-1-yl]-4-pyridin-2-yl-pyrimidine]
IC50 [5]: 7.95 µM | Sepsis: Murine LPS-d-galactosamine model % inhibition ([2]; 200 mg/kg intraperitoneally one hour before induction): 33 @ 200 mg/kg % | Inflammatory Bowel Disease: Rat DNBS model % inhibition of colonic weight gain ([3]; 100 mg/kg orally): 51% @ 100 mg/kg | half-life ([4]; in vivo): 2.3 h | Pharmacokinetic Parameters % oral bioavailability ([4]; species not given): Undetectable
